Laboratory results from ChEMBL document CHEMBL3045068, “Effect of methomyl and oxamyl soil applications on early control of nematodes and insects” (Pest Manag Sci, 2011).
In brackets after ≈: the same amount, converted by molar mass.

Legend:
Meloidogyne incognita [1] = assay: Nematicidal activity against second juvenile stage of Meloidogyne incognita (root-knot nematode) infected lima bean plant assessed as shoot dry weight at 1.12 kg ai/ha applied to soil measured during planting under green house conditions (reference value: 1.84 +/- 0.18 g); assay type: functional
Meloidogyne incognita [2] = assay: Nematicidal activity against second juvenile stage of Meloidogyne incognita (root-knot nematode) infected lima bean plant assessed as reduction in root gall index at 1.12 kg ai/ha applied to soil measured during planting under green house conditions (reference value: 7 +/- 0.27%); assay type: functional
Meloidogyne incognita [3] = assay: Nematicidal activity against second juvenile stage of Meloidogyne incognita (root-knot nematode) infected pea plant assessed as reduction in root gall index at 1.12 kg ai/ha applied to soil measured up to 7 days post planting under green house conditions (reference value: 9.7 +/- 0.30%); assay type: functional
Meloidogyne incognita [4] = assay: Nematicidal activity against second juvenile stage of Meloidogyne incognita (root-knot nematode) infected lima bean plant assessed as shoot dry weight at 0.56 kg ai/ha applied to soil measured during planting under green house conditions (reference value: 1.84 +/- 0.18 g); assay type: functional
Phaseolus lunatus [5] = assay: Phytotoxicity in Phaseolus lunatus (lima bean) root assessed as root dry weight at 2.24 kg ai/ha applied to soil measured up to 7 days under green house conditions (reference value: 0.36 +/- 0.071 g); assay type: organism-based; settings: in vivo, other, 168 h
Meloidogyne incognita [6] = assay: Nematicidal activity against second juvenile stage of Meloidogyne incognita (root-knot nematode) infected pea plant assessed as root dry weight at 1.12 kg ai/ha applied to soil measured up to 7 days post planting under green house conditions (reference value: 0.25 +/- 0.041 g); assay type: functional
Meloidogyne incognita [7] = assay: Nematicidal activity against second juvenile stage of Meloidogyne incognita (root-knot nematode) assessed as mortality after 48 hr; assay type: functional
Meloidogyne incognita [8] = assay: Nematicidal activity against second juvenile stage of Meloidogyne incognita (root-knot nematode) infected pea plant assessed as plant fresh weight at 1.12 kg ai/ha applied to soil measured up to 7 days post planting under green house conditions (reference value: 4.3 +/- 0.56 g); assay type: functional
Meloidogyne incognita [9] = assay: Nematicidal activity against second juvenile stage of Meloidogyne incognita (root-knot nematode) infected pea plant assessed as root fresh weight at 1.12 kg ai/ha applied to soil measured up to 7 days post planting under green house conditions (reference value: 1.83 +/- 0.3 g); assay type: functional
Meloidogyne incognita [10] = assay: Nematicidal activity against second juvenile stage of Meloidogyne incognita (root-knot nematode) infected pea plant assessed as emergence at 1.12 kg ai/ha applied to soil measured up to 7 days under green house conditions (reference value: 75 +/- 13%); assay type: functional
Phaseolus lunatus [11] = assay: Phytotoxicity in Phaseolus lunatus (lima bean) plant assessed as plant dry weight at 2.24 kg ai/ha applied to soil measured up to 7 days under green house conditions (reference value: 1.20 +/- 0.21 g); assay type: organism-based; settings: in vivo, other, 168 h
Meloidogyne incognita [12] = assay: Nematicidal activity against second juvenile stage of Meloidogyne incognita (root-knot nematode) infected pea plant assessed as root dry weight at 0.56 kg ai/ha applied to soil under green house conditions (reference value: 0.25 +/- 0.041 g); assay type: functional
Meloidogyne incognita [13] = assay: Nematicidal activity against second juvenile stage of Meloidogyne incognita (root-knot nematode) infected lima bean plant assessed as root dry weight at 0.56 kg ai/ha applied to soil measured during planting under green house conditions (reference value: 0.5 +/- 0.052 g); assay type: functional
Meloidogyne incognita [14] = assay: Nematicidal activity against second juvenile stage of Meloidogyne incognita (root-knot nematode) infected pea plant assessed as plant fresh weight at 0.56 kg ai/ha applied to soil under green house conditions (reference value: 4.3 +/- 0.56 g); assay type: functional
Meloidogyne incognita [15] = assay: Nematicidal activity against second juvenile stage of Meloidogyne incognita (root-knot nematode) infected pea plant assessed as plant fresh weight at 1.68 kg ai/ha applied to soil measured up to 7 days post planting under green house conditions (reference value: 4.3 +/- 0.56 g); assay type: functional
Meloidogyne incognita [16] = assay: Nematicidal activity against second juvenile stage of Meloidogyne incognita (root-knot nematode) infected lima bean plant assessed as emergence at 1.12 kg ai/ha applied to soil measured during planting under green house conditions (reference value: 83 +/- 5%); assay type: functional
Meloidogyne incognita [17] = assay: Nematicidal activity against second juvenile stage of Meloidogyne incognita (root-knot nematode) infested soil containing cucumber seeds assessed as mortality applied post seed germination measured after 7 days under green house conditions; assay type: functional
Meloidogyne incognita [18] = assay: Nematicidal activity against second juvenile stage of Meloidogyne incognita (root-knot nematode) infected pea plant assessed as reduction in root gall index at 0.56 kg ai/ha applied to soil under green house conditions (reference value: 9.7 +/- 0.30%); assay type: functional
Meloidogyne incognita [19] = assay: Nematicidal activity against second juvenile stage of Meloidogyne incognita (root-knot nematode) infected pea plant assessed as root fresh weight at 1.68 kg ai/ha applied to soil measured up to 14 days post planting under green house conditions (reference value: 1.83 +/- 0.3 g); assay type: functional
Phaseolus lunatus [20] = assay: Phytotoxicity in Phaseolus lunatus (lima bean) plant assessed as plant dry weight at 1.12 kg ai/ha applied to soil measured up to 7 days under green house conditions (reference value: 1.20 +/- 0.21 g); assay type: organism-based; settings: in vivo, other, 168 h
Meloidogyne incognita [21] = assay: Nematicidal activity against second juvenile stage of Meloidogyne incognita (root-knot nematode) infected pea plant assessed as root fresh weight at 0.56 kg ai/ha applied to soil under green house conditions (reference value: 1.83 +/- 0.3 g); assay type: functional
Phaseolus lunatus [22] = assay: Phytotoxicity in Phaseolus lunatus (lima bean) plant assessed as emergence at 2.24 kg ai/ha applied to soil measured up to 7 days under green house conditions (reference value: 70 +/- 16%); assay type: organism-based; settings: in vivo, other, 168 h
Phaseolus lunatus [23] = assay: Phytotoxicity in Phaseolus lunatus (lima bean) plant assessed as emergence at 1.12 kg ai/ha applied to soil measured up to 7 days under green house conditions (reference value: 70 +/- 16%); assay type: organism-based; settings: in vivo, other, 168 h
Meloidogyne incognita [24] = assay: Nematicidal activity against second juvenile stage of Meloidogyne incognita (root-knot nematode) infected pea plant assessed as emergence at 0.56 kg ai/ha applied to soil under green house conditions (reference value: 75 +/- 13%); assay type: functional
Meloidogyne incognita [25] = assay: Nematicidal activity against second juvenile stage of Meloidogyne incognita (root-knot nematode) infected lima bean plant assessed as emergence at 0.56 kg ai/ha applied to soil measured during planting under green house conditions (reference value: 83 +/- 5%); assay type: functional
Meloidogyne incognita [26] = assay: Nematicidal activity against second juvenile stage of Meloidogyne incognita (root-knot nematode) assessed as mortality after 72 hr; assay type: functional
Meloidogyne incognita [27] = assay: Nematicidal activity against second juvenile stage of Meloidogyne incognita (root-knot nematode) infected pea plant assessed as emergence at 1.68 kg ai/ha applied to soil measured up to 14 days under green house conditions (reference value: 75 +/- 13%); assay type: functional
Meloidogyne incognita [28] = assay: Nematicidal activity against second juvenile stage of Meloidogyne incognita (root-knot nematode) infected pea plant assessed as root dry weight at 1.68 kg ai/ha applied to soil measured up to 14 days post planting under green house conditions (reference value: 0.25 +/- 0.041 g); assay type: functional
Meloidogyne incognita [29] = assay: Nematicidal activity against second juvenile stage of Meloidogyne incognita (root-knot nematode) infected lima bean plant assessed as reduction in root gall index at 0.56 kg ai/ha applied to soil measured during planting under green house conditions (reference value: 7 +/- 0.27%); assay type: functional
Meloidogyne incognita [30] = assay: Nematicidal activity against second juvenile stage of Meloidogyne incognita (root-knot nematode) infected pea plant assessed as reduction in root gall index at 1.68 kg ai/ha applied to soil measured up to 14 days post planting under green house conditions (reference value: 9.7 +/- 0.30%); assay type: functional
Phaseolus lunatus [31] = assay: Phytotoxicity in Phaseolus lunatus (lima bean) root assessed as root dry weight at 1.12 kg ai/ha applied to soil measured up to 7 days under green house conditions (reference value: 0.36 +/- 0.071 g); assay type: organism-based; settings: in vivo, other, 168 h
Meloidogyne incognita [32] = assay: Nematicidal activity against second juvenile stage of Meloidogyne incognita (root-knot nematode) infected lima bean plant assessed as root dry weight at 1.12 kg ai/ha applied to soil measured during planting under green house conditions (reference value: 0.5 +/- 0.052 g); assay type: functional

SMILES: CNC(=O)O/N=C(\SC)C(=O)N(C)C [OXAMYL]
- Activity (Meloidogyne incognita [1]): 1.49 g
- Root_galling_index (Meloidogyne incognita [2]): 0%
- Root_galling_index (Meloidogyne incognita [3]): 0%
- Activity (Meloidogyne incognita [4]): 1.09 g
- Activity (Phaseolus lunatus [5]): 0.6 g
- Activity (Meloidogyne incognita [6]): 0.31 g
- LC90 (Meloidogyne incognita [7]): 11.5 µg/mL (≈ 52.4 µM)
- LC50 (Meloidogyne incognita [7]; Meloidogyne incognita, Juvenile stage, 48 h): 4 µg/mL (≈ 18.2 µM)
- Activity (Meloidogyne incognita [8]): 6 g
- Activity (Meloidogyne incognita [9]): 1.61 g
- Activity (Meloidogyne incognita [10]): 63%
- Activity (Phaseolus lunatus [11]): 1.79 g
- Activity (Meloidogyne incognita [12]): 0.17 g
- Activity (Meloidogyne incognita [13]): 0.31 g
- Activity (Meloidogyne incognita [14]): 4.4 g
- Activity (Meloidogyne incognita [15]): 7.1 g
- Activity (Meloidogyne incognita [16]): 100%
- LC90 (Meloidogyne incognita [17]): 12 µg/mL (≈ 54.7 µM)
- LC50 (Meloidogyne incognita [17]; Meloidogyne incognita, Juvenile stage, 168 h): 2.8 µg/mL (≈ 12.8 µM)
- Root_galling_index (Meloidogyne incognita [18]): 0%
- Activity (Meloidogyne incognita [19]): 1.76 g
- Activity (Phaseolus lunatus [20]): 1.48 g
- Activity (Meloidogyne incognita [21]): 1.36 g
- Activity (Phaseolus lunatus [22]): 70%
- Activity (Phaseolus lunatus [23]): 80%
- Activity (Meloidogyne incognita [24]): 63%
- Activity (Meloidogyne incognita [25]): 83%
- LC90 (Meloidogyne incognita [26]): 2.5 µg/mL (≈ 11.4 µM)
- LC50 (Meloidogyne incognita [26]; Meloidogyne incognita, Juvenile stage, 72 h): 1.7 µg/mL (≈ 7.75 µM)
- Activity (Meloidogyne incognita [27]): 75%
- Activity (Meloidogyne incognita [28]): 0.29 g
- Root_galling_index (Meloidogyne incognita [29]): 0%
- Root_galling_index (Meloidogyne incognita [30]): 0%
- Activity (Phaseolus lunatus [31]): 0.35 g
- Activity (Meloidogyne incognita [32]): 0.41 g
